Test results published in paper PMC4890880 (ACS infectious diseases, 2016).

These molecules were tested on HepG2-A16-CD81EGFP cells (assay: cells). Conditions: Homo sapiens, HepG2, read-out: HepG2 Tox% @ 50 uM rep1.
`CCOc1ccc(Nc2ccnc3cc(Cl)ccc23)cc1` [MMV007285] showed a cytotoxicity at 50 µM of 16%. `CCc1ccc(Nc2cc(C)nc3nc(C)nn23)cc1` [MMV007374] showed a cytotoxicity at 50 µM of 11%. `Cc1ccc(Cn2c(N3CCC(C(=O)NCc4cccs4)CC3)nc3ccccc32)cc1` [MMV007564] was tested, and the cytotoxicity at 50 µM was 97%. `COc1ccc(C(C)=O)cc1N1C(=O)C2C(C1=O)C1(c3ccccc3)C(=O)C2(c2ccccc2)C(c2ccc(C)cc2)=C1c1ccc(C)cc1` (stereo not shown) [MMV007695] was tested, and the cytotoxicity at 50 µM was -1.58%. `CCCCOc1ccc(C(=O)Nc2cc(C)on2)cc1` [MMV007906] was tested, and the cytotoxicity at 50 µM was -15%. `CCOc1ccc(CCNC(=O)c2cccs2)cc1OCC` [MMV007978] was tested, and the cytotoxicity at 50 µM was 43%. In the case of `Cc1c(C)n(Cc2ccc(F)cc2)c2ccc(C(=O)NCc3ccco3)cc12` [MMV008149], the cytotoxicity at 50 µM is reported as 9%. `Oc1c2c(nc3cc(-c4ccccc4)nn13)CCCC2` [MMV008270] showed a cytotoxicity at 50 µM of -14%.

Same assay, conditions: Homo sapiens, HepG2, read-out: HepG2 Tox% @ 50 uM rep2
With `CCc1ccc(Nc2cc(C)nc3nc(C)nn23)cc1` [MMV007374] the cytotoxicity at 50 µM was 15%. In the case of `Cc1ccc(Cn2c(N3CCC(C(=O)NCc4cccs4)CC3)nc3ccccc32)cc1` [MMV007564], the cytotoxicity at 50 µM is reported as 99%. `COc1ccc(C(C)=O)cc1N1C(=O)C2C(C1=O)C1(c3ccccc3)C(=O)C2(c2ccccc2)C(c2ccc(C)cc2)=C1c1ccc(C)cc1` (stereo not shown) [MMV007695] gave a cytotoxicity at 50 µM of 13%. Molecule `CCCCOc1ccc(C(=O)Nc2cc(C)on2)cc1` [MMV007906] has a cytotoxicity at 50 µM of -10%. In the case of `CCOc1ccc(CCNC(=O)c2cccs2)cc1OCC` [MMV007978], the cytotoxicity at 50 µM is reported as 10%. In the case of `Cc1c(C)n(Cc2ccc(F)cc2)c2ccc(C(=O)NCc3ccco3)cc12` [MMV008149], the cytotoxicity at 50 µM is reported as 19%. `Oc1c2c(nc3cc(-c4ccccc4)nn13)CCCC2` [MMV008270] was tested, and the cytotoxicity at 50 µM was -22%.

Same assay, conditions: Homo sapiens, HepG2, read-out: Tox IC50
For `CCOc1ccc(Nc2ccnc3cc(Cl)ccc23)cc1` [MMV007285], the IC50 was over 50 µM. In the case of `CCc1ccc(Nc2cc(C)nc3nc(C)nn23)cc1` [MMV007374], the IC50 is reported as over 50 µM. Molecule `Cc1ccc(Cn2c(N3CCC(C(=O)NCc4cccs4)CC3)nc3ccccc32)cc1` [MMV007564] has an IC50 of over 50 µM. With `COc1ccc(C(C)=O)cc1N1C(=O)C2C(C1=O)C1(c3ccccc3)C(=O)C2(c2ccccc2)C(c2ccc(C)cc2)=C1c1ccc(C)cc1` (stereo not shown) [MMV007695] the IC50 was over 50 µM. For `CCCCOc1ccc(C(=O)Nc2cc(C)on2)cc1` [MMV007906], the IC50 was over 10 µM. For `CCOc1ccc(CCNC(=O)c2cccs2)cc1OCC` [MMV007978], the IC50 was over 50 µM. Work on `Cc1c(C)n(Cc2ccc(F)cc2)c2ccc(C(=O)NCc3ccco3)cc12` [MMV008149] yielded an IC50 of over 50 µM. With `Oc1c2c(nc3cc(-c4ccccc4)nn13)CCCC2` [MMV008270] the IC50 was over 10 µM.

Same assay, conditions: Homo sapiens, HepG2, read-out: Tox max inhibition (%) @ 10 uM
Molecule `CCCCOc1ccc(C(=O)Nc2cc(C)on2)cc1` [MMV007906] has an inhibition at 10 µM of 7.53%. With `Oc1c2c(nc3cc(-c4ccccc4)nn13)CCCC2` [MMV008270] the inhibition at 10 µM was 8%.

Same assay, conditions: Homo sapiens, HepG2, read-out: Tox max inhibition (%) @ 50 uM
With `CCOc1ccc(Nc2ccnc3cc(Cl)ccc23)cc1` [MMV007285] the inhibition at 50 µM was 14%. With `CCc1ccc(Nc2cc(C)nc3nc(C)nn23)cc1` [MMV007374] the inhibition at 50 µM was 9%. In the case of `Cc1ccc(Cn2c(N3CCC(C(=O)NCc4cccs4)CC3)nc3ccccc32)cc1` [MMV007564], the inhibition at 50 µM is reported as 69%. For `COc1ccc(C(C)=O)cc1N1C(=O)C2C(C1=O)C1(c3ccccc3)C(=O)C2(c2ccccc2)C(c2ccc(C)cc2)=C1c1ccc(C)cc1` (stereo not shown) [MMV007695], the inhibition at 50 µM was 5.54%. Work on `CCOc1ccc(CCNC(=O)c2cccs2)cc1OCC` [MMV007978] yielded an inhibition at 50 µM of 8%. Molecule `Cc1c(C)n(Cc2ccc(F)cc2)c2ccc(C(=O)NCc3ccco3)cc12` [MMV008149] has an inhibition at 50 µM of 32%.

What follows are molecules tested on Plasmodium berghei (Pb-Luc) exoerythrocytic-stage parasites (assay: microbe, parasite or virus in culture). Conditions: read-out: Inhibition% @ 50 uM rep1.
Work on `CCOc1ccc(Nc2ccnc3cc(Cl)ccc23)cc1` [MMV007285] yielded an inhibition at 50 µM of 88%. In the case of `CCc1ccc(Nc2cc(C)nc3nc(C)nn23)cc1` [MMV007374], the inhibition at 50 µM is reported as 92%. Molecule `Cc1ccc(Cn2c(N3CCC(C(=O)NCc4cccs4)CC3)nc3ccccc32)cc1` [MMV007564] has an inhibition at 50 µM of 104%. Molecule `COc1ccc(C(C)=O)cc1N1C(=O)C2C(C1=O)C1(c3ccccc3)C(=O)C2(c2ccccc2)C(c2ccc(C)cc2)=C1c1ccc(C)cc1` (stereo not shown) [MMV007695] has an inhibition at 50 µM of 101%. For `CCCCOc1ccc(C(=O)Nc2cc(C)on2)cc1` [MMV007906], the inhibition at 50 µM was 98%. For `CCOc1ccc(CCNC(=O)c2cccs2)cc1OCC` [MMV007978], the inhibition at 50 µM was 104%. In the case of `Cc1c(C)n(Cc2ccc(F)cc2)c2ccc(C(=O)NCc3ccco3)cc12` [MMV008149], the inhibition at 50 µM is reported as 102%. Work on `Oc1c2c(nc3cc(-c4ccccc4)nn13)CCCC2` [MMV008270] yielded an inhibition at 50 µM of 103%.

Same assay, conditions: read-out: Inhibition% @ 50 uM rep2
With `CCOc1ccc(Nc2ccnc3cc(Cl)ccc23)cc1` [MMV007285] the inhibition at 50 µM was 91%. Work on `CCc1ccc(Nc2cc(C)nc3nc(C)nn23)cc1` [MMV007374] yielded an inhibition at 50 µM of 91%. `Cc1ccc(Cn2c(N3CCC(C(=O)NCc4cccs4)CC3)nc3ccccc32)cc1` [MMV007564] gave an inhibition at 50 µM of 105%. `COc1ccc(C(C)=O)cc1N1C(=O)C2C(C1=O)C1(c3ccccc3)C(=O)C2(c2ccccc2)C(c2ccc(C)cc2)=C1c1ccc(C)cc1` (stereo not shown) [MMV007695] gave an inhibition at 50 µM of 104%. For `CCCCOc1ccc(C(=O)Nc2cc(C)on2)cc1` [MMV007906], the inhibition at 50 µM was 98%. With `CCOc1ccc(CCNC(=O)c2cccs2)cc1OCC` [MMV007978] the inhibition at 50 µM was 106%. Work on `Cc1c(C)n(Cc2ccc(F)cc2)c2ccc(C(=O)NCc3ccco3)cc12` [MMV008149] yielded an inhibition at 50 µM of 102%. With `Oc1c2c(nc3cc(-c4ccccc4)nn13)CCCC2` [MMV008270] the inhibition at 50 µM was 104%.

Same assay, conditions: read-out: PbLuc IC50, dose response, 1/3 dilutions, max conc. 10 or 50 uM, unit inferred
In the case of `CCOc1ccc(Nc2ccnc3cc(Cl)ccc23)cc1` [MMV007285], the IC50 is reported as 1.65 µM. Work on `CCc1ccc(Nc2cc(C)nc3nc(C)nn23)cc1` [MMV007374] yielded an IC50 of 4.8 µM. `Cc1ccc(Cn2c(N3CCC(C(=O)NCc4cccs4)CC3)nc3ccccc32)cc1` [MMV007564] showed an IC50 of 2.09 µM. Work on `CCCCOc1ccc(C(=O)Nc2cc(C)on2)cc1` [MMV007906] yielded an IC50 of 0.907 µM. Molecule `CCOc1ccc(CCNC(=O)c2cccs2)cc1OCC` [MMV007978] has an IC50 of 7.94 µM. `Cc1c(C)n(Cc2ccc(F)cc2)c2ccc(C(=O)NCc3ccco3)cc12` [MMV008149] was tested, and the IC50 was 0.765 µM. `Oc1c2c(nc3cc(-c4ccccc4)nn13)CCCC2` [MMV008270] gave an IC50 of 0.147 µM.

Same assay, conditions: read-out: PbLuc IC50, dose response, unit inferred
`COc1ccc(C(C)=O)cc1N1C(=O)C2C(C1=O)C1(c3ccccc3)C(=O)C2(c2ccccc2)C(c2ccc(C)cc2)=C1c1ccc(C)cc1` (stereo not shown) [MMV007695] was tested, and the IC50 was 24.8 µM.

Same assay, conditions: read-out: PbLuc max inhibition (%) @ 10 uM
`CCCCOc1ccc(C(=O)Nc2cc(C)on2)cc1` [MMV007906] was tested, and the inhibition at 10 µM was 97%. In the case of `Oc1c2c(nc3cc(-c4ccccc4)nn13)CCCC2` [MMV008270], the inhibition at 10 µM is reported as 106%.

Same assay, conditions: read-out: PbLuc max inhibition (%) @ 50 uM
`CCOc1ccc(Nc2ccnc3cc(Cl)ccc23)cc1` [MMV007285] was tested, and the inhibition at 50 µM was 100%. `CCc1ccc(Nc2cc(C)nc3nc(C)nn23)cc1` [MMV007374] gave an inhibition at 50 µM of 101%. With `Cc1ccc(Cn2c(N3CCC(C(=O)NCc4cccs4)CC3)nc3ccccc32)cc1` [MMV007564] the inhibition at 50 µM was 106%. For `COc1ccc(C(C)=O)cc1N1C(=O)C2C(C1=O)C1(c3ccccc3)C(=O)C2(c2ccccc2)C(c2ccc(C)cc2)=C1c1ccc(C)cc1` (stereo not shown) [MMV007695], the inhibition at 50 µM was 60%. Molecule `CCOc1ccc(CCNC(=O)c2cccs2)cc1OCC` [MMV007978] has an inhibition at 50 µM of 104%. `Cc1c(C)n(Cc2ccc(F)cc2)c2ccc(C(=O)NCc3ccco3)cc12` [MMV008149] was tested, and the inhibition at 50 µM was 107%.

What follows are molecules tested against QuantiLum Recombinant Luciferase (Photinus pyralis, UniProt P08659) (assay: Bioluminescence quantification of compound luciferase inhibition). Conditions: not given.
Chain of QuantiLum Recombinant Luciferase (P08659 whole entry): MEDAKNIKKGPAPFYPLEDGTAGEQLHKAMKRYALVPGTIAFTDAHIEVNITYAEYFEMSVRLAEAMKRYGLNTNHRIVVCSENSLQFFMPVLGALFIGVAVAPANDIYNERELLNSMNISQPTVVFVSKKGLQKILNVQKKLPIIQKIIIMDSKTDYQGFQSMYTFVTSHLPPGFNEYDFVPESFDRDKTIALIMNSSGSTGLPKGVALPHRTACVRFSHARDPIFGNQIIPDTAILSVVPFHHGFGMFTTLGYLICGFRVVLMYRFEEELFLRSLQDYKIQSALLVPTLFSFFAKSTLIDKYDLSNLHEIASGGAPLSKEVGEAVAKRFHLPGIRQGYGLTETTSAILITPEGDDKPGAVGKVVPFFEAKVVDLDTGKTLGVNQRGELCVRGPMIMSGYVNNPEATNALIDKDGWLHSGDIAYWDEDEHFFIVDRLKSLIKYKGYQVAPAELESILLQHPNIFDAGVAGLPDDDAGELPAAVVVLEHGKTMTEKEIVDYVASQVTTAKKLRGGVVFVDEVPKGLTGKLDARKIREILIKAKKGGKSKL
`CCOc1ccc(Nc2ccnc3cc(Cl)ccc23)cc1` [MMV007285] gave an IC50 of over 50 µM. In the case of `CCc1ccc(Nc2cc(C)nc3nc(C)nn23)cc1` [MMV007374], the IC50 is reported as over 50 µM. With `Cc1ccc(Cn2c(N3CCC(C(=O)NCc4cccs4)CC3)nc3ccccc32)cc1` [MMV007564] the IC50 was over 50 µM. For `COc1ccc(C(C)=O)cc1N1C(=O)C2C(C1=O)C1(c3ccccc3)C(=O)C2(c2ccccc2)C(c2ccc(C)cc2)=C1c1ccc(C)cc1` (stereo not shown) [MMV007695], the IC50 was over 50 µM. Molecule `CCCCOc1ccc(C(=O)Nc2cc(C)on2)cc1` [MMV007906] has an IC50 of over 20 µM. `CCOc1ccc(CCNC(=O)c2cccs2)cc1OCC` [MMV007978] showed an IC50 of over 50 µM. `Cc1c(C)n(Cc2ccc(F)cc2)c2ccc(C(=O)NCc3ccco3)cc12` [MMV008149] showed an IC50 of over 50 µM. `Oc1c2c(nc3cc(-c4ccccc4)nn13)CCCC2` [MMV008270] was tested, and the IC50 was 0.577 µM.

Same assay, conditions: read-out: LucInhib max inhibition
`CCOc1ccc(Nc2ccnc3cc(Cl)ccc23)cc1` [MMV007285] gave an Emax of 47%. `CCc1ccc(Nc2cc(C)nc3nc(C)nn23)cc1` [MMV007374] was tested, and the Emax was 30%. For `Cc1ccc(Cn2c(N3CCC(C(=O)NCc4cccs4)CC3)nc3ccccc32)cc1` [MMV007564], the Emax was 27%. `COc1ccc(C(C)=O)cc1N1C(=O)C2C(C1=O)C1(c3ccccc3)C(=O)C2(c2ccccc2)C(c2ccc(C)cc2)=C1c1ccc(C)cc1` (stereo not shown) [MMV007695] gave an Emax of 35%. In the case of `CCCCOc1ccc(C(=O)Nc2cc(C)on2)cc1` [MMV007906], the Emax is reported as 34%. With `CCOc1ccc(CCNC(=O)c2cccs2)cc1OCC` [MMV007978] the Emax was 34%. In the case of `Cc1c(C)n(Cc2ccc(F)cc2)c2ccc(C(=O)NCc3ccco3)cc12` [MMV008149], the Emax is reported as 10%. In the case of `Oc1c2c(nc3cc(-c4ccccc4)nn13)CCCC2` [MMV008270], the Emax is reported as 92%.
